# According to US9856279B2 (AGIOS PHARMACEUTICALS, INC, priority 2011, dated 2018):
# pIC50: −log10 of the molar value.
# Biological target: IDH1 R132H (Homo sapiens, UniProt O75874, R132H)
# Assay: Assay for IDH1 R132H inhibitors (NADPH/aKG, resazurin detection)
# Assay type: biochemical
# Settings: enzyme assay of Example 12; read-out: IDH1R132H IC50
# Summary of the method: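 Compound added to substrate mix (8 uM NADPH, 2 mM aKG), then enzyme mix (0.2 μg/ml IDH1 R132H); 50 min RT in 20 mM Tris pH 7.5, 150 mM NaCl, 10 mM MgCl2, 0.03% BSA. Resazurin detection mix (30 μM) 5 min RT; resorufin fluorescence Ex544/Em590.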
# Sequence of IDH1 R132H (O75874 whole entry R132H): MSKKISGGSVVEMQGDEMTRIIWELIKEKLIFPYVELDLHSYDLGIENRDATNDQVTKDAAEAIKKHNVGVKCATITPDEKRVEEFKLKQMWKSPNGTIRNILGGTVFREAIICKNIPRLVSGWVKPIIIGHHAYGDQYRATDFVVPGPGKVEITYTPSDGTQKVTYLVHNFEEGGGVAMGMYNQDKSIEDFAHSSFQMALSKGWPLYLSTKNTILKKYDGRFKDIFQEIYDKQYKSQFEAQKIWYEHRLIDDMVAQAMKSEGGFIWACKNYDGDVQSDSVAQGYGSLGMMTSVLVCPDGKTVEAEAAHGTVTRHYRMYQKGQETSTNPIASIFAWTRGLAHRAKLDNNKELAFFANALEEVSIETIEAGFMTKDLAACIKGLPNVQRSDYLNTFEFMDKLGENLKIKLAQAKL
row,Compound,pIC50
1,"CN(C)c1nccc(-c2cc(C#N)c(N3CCN(C(=O)CC(F)(F)F)[C@H](C4CC4)C3)nc2C2CC2)n1 [Compound 521, (R)-6-cyclopropyl-2-(3-cyclopropyl-4-(3,3,3-trifluoropropanoyl)piperazin-1-yl)-5-(2-(dimethylamino)pyrimidin-4-yl)nicotinonitrile]",> 6.30
2,"Cc1cc(-c2cc(C#N)c(N3CCN(C(=O)C4CC4)[C@H](C4CC4)C3)nc2C2CC2)ccn1 [Compound 523, (R)-6-(4-(cyclopropanecarbonyl)-3-cyclopropylpiperazin-1-yl)-2-cyclopropyl-2′-methyl-3,4′-bipyridine-5-carbonitrile]",6.00 to 6.30
3,"N#Cc1cc(-c2cccnc2)c(C2CC2)nc1N1CCN(C(=O)CC(F)(F)F)[C@H](C2CC2)C1 [Compound 524, (R)-2-cyclopropyl-6-(3-cyclopropyl-4-(3,3,3-trifluoropropanoyl)piperazin-1-yl)-[3,3′-bipyridine]-5-carbonitrile]",> 6.30
4,"N#Cc1cncc(-c2cc(C#N)c(N3CCN(C(=O)CC(F)(F)F)[C@H](C4CC4)C3)nc2C2CC2)c1 [Compound 525, (R)-2-cyclopropyl-6-(3-cyclopropyl-4-(3,3,3-trifluoropropanoyl)piperazin-1-yl)-[3,3′-bipyridine]-5,5′-dicarbonitrile]",> 6.30
5,"N#Cc1cc(-c2cccc3nccnc23)c(C2CC2)nc1N1CCN(C(=O)C2CC2)[C@H](C2CC2)C1 [Compound 531, (R)-2-(4-(cyclopropanecarbonyl)-3-cyclopropylpiperazin-1-yl)-6-cyclopropyl-5-(quinoxalin-5-yl)nicotinonitrile]",> 6.30
6,"N#Cc1cc(-c2cccc3nccnc23)c(C2CC2)nc1N1CCN(C(=O)CC(F)(F)F)[C@H](C2CC2)C1 [Compound 532, (R)-6-cyclopropyl-2-(3-cyclopropyl-4-(3,3,3-trifluoropropanoyl)piperazin-1-yl)-5-(quinoxalin-5-yl)nicotinonitrile]",> 6.30
7,N#Cc1cc(-c2ccnc(N)n2)c(C2CC2)nc1N1CCN(C(=O)CC(F)(F)F)[C@H](C2CC2)C1 [Compound 534],> 6.30
8,"N#Cc1cc(-c2cccc3nc(N)ncc23)c(C2CC2)nc1N1CCN(C(=O)C2CC2)[C@H](C2CC2)C1 [Compound 538, (R)-5-(2-aminoquinazolin-5-yl)-2-(4-(cyclopropanecarbonyl)-3-cyclopropylpiperazin-1-yl)-6-cyclopropylnicotinonitrile]",> 6.30
9,"N#Cc1cc(-c2cncc(C(N)=O)c2)c(C2CC2)nc1N1CCN(C(=O)CC(F)(F)F)[C@H](C2CC2)C1 [Compound 540, (R)-5′-cyano-2′-cyclopropyl-6′-(3-cyclopropyl-4-(3,3,3-trifluoropropanoyl)piperazin-1-yl)-[3,3′-bipyridine]-5-carboxamide]",> 6.30
10,"N#Cc1cc(-c2cc(Cl)nc3ccccc23)c(C2CC2)nc1N1CCN(C(=O)C2CC2)[C@H](C2CC2)C1 [Compound 543, (R)-5-(2-chloroquinolin-4-yl)-2-(4-(cyclopropanecarbonyl)-3-cyclopropylpiperazin-1-yl)-6-cyclopropylnicotinonitrile]",6.00 to 6.30
11,"CCO[C@H]1C[C@@H]1C(=O)N1CCN(c2nc(C3CC3)c(-c3ccc(F)cc3)cc2C#N)C[C@H]1C1CC1 [Compound 548, 6-cyclopropyl-2-((R)-3-cyclopropyl-4-((1S,2S)-2-ethoxycyclopropanecarbonyl)piperazin-1-yl)-5-(4-fluorophenyl)nicotinonitrile]",6.00 to 6.30
12,"N#Cc1cc(-c2cccc3nc(Cl)ccc23)c(C2CC2)nc1N1CCN(C(=O)C2CC2)[C@H](C2CC2)C1 [Compound 549, (R)-5-(2-chloroquinolin-5-yl)-2-(4-(cyclopropanecarbonyl)-3-cyclopropylpiperazin-1-yl)-6-cyclopropylnicotinonitrile]",> 6.30
13,N#Cc1cc(-c2ccc3[nH]ncc3c2)c(C2CC2)nc1N1CCN(C(=O)CC(F)(F)F)[C@H](C2CC2)C1 [Compound 552],> 6.30
14,"N#Cc1cc(-c2cncc(-c3nnn[nH]3)c2)c(C2CC2)nc1N1CCN(C(=O)C2CC2)[C@H](C2CC2)C1 [Compound 554, (R)-6-(4-(cyclopropanecarbonyl)-3-cyclopropylpiperazin-1-yl)-2-cyclopropyl-5′-(1H-tetrazol-5-yl)-[3,3′-bipyridine]-5-carbonitrile]",> 6.30

# Further lines, results first:
row,pIC50,Compound
1,> 6.30,"C[C@@H]1CN(c2nc(C3CC3)c(-c3cccc4cnccc34)cc2C#N)CCN1C(=O)C1CC1 [Compound 556, (R)-2-(4-(cyclopropanecarbonyl)-3-methylpiperazin-1-yl)-6-cyclopropyl-5-(isoquinolin-5-yl)nicotinonitrile]"
2,> 6.30,"CCO[C@H]1C[C@H]1C(=O)N1CCN(c2nc(C3CC3)c(-c3ccc(F)cc3)cc2C#N)C[C@H]1C1CC1 [Compound 564, 6-cyclopropyl-2-((R)-3-cyclopropyl-4-((1R,2S)-2-ethoxycyclopropanecarbonyl)piperazin-1-yl)-5-(4-fluorophenyl)nicotinonitrile]"
3,6.00 to 6.30,"N#Cc1cc(-c2ccc(C(F)(F)F)nc2)c(C2CC2)nc1N1CCN(C(=O)C2CC2)[C@H](C2CC2)C1 [Compound 567, (R)-6-(4-(cyclopropanecarbonyl)-3-cyclopropylpiperazin-1-yl)-2-cyclopropyl-6′-(trifluoromethyl)-[3,3′-bipyridine]-5-carbonitrile]"
4,6.00 to 6.30,"C[C@@H]1CN(c2nc(C3CC3)c(-c3ccc(C#N)nc3)cc2C#N)CCN1C(=O)C1CC1 [Compound 583, (R)-6-(4-(cyclopropanecarbonyl)-3-methylpiperazin-1-yl)-2-cyclopropyl-3,3′-bipyridine-5,6′-dicarbonitrile]"
5,6.00 to 6.30,"COCCC(=O)N1CCN(c2nc(C3CC3)c(-c3ccc(C#N)nc3)cc2C#N)C[C@H]1C [Compound 584, (R)-2-cyclopropyl-6-(4-(3-methoxypropanoyl)-3-methylpiperazin-1-yl)-3,3′-bipyridine-5,6′-dicarbonitrile]"
6,> 6.30,"COCCC(=O)N1CCN(c2nc(C3CC3)c(-c3cc(Cl)nc(Cl)c3)cc2C#N)C[C@H]1C [Compound 586, (R)-2′,6′-dichloro-2-cyclopropyl-6-(4-(3-methoxypropanoyl)-3-methylpiperazin-1-yl)-[3,4′-bipyridine]-5-carbonitrile]"
7,6.00 to 6.30,"C#Cc1cc(-c2cc(C#N)c(N3CCN(C(=O)C4CC4)[C@H](C)C3)nc2C2CC2)ccn1 [Compound 593, (R)-6-(4-(cyclopropanecarbonyl)-3-methylpiperazin-1-yl)-2-cyclopropyl-2′-ethynyl-3,4′-bipyridine-5-carbonitrile]"
8,> 6.30,"C=Cc1nc(-c2cc(C#N)c(N3CCN(C(=O)CCOC)[C@H](C)C3)nc2C2CC2)ncc1F [Compound 601, (R)-6-cyclopropyl-5-(5-fluoro-4-vinylpyrimidin-2-yl)-2-(4-(3-methoxypropanoyl)-3-methylpiperazin-1-yl)nicotinonitrile]"
9,> 6.30,"COCCC(=O)N1CCN(c2nc(C3CC3)c(-c3cnnc(OS(=O)(=O)C(F)(F)F)c3)cc2C#N)C[C@H]1C [Compound 614, (R)-5-(5-cyano-2-cyclopropyl-6-(4-(3-methoxypropanoyl)-3-methylpiperazin-1-yl)pyridin-3-yl)pyridazin-3-yl trifluoromethanesulfonate]"
10,> 6.30,"N#Cc1cc(-c2cnnc(O)c2)c(C2CC2)nc1N1CCN(C(=O)C2CC2)[C@H](C2CC2)C1 [Compound 616, (R)-2-(4-(cyclopropanecarbonyl)-3-cyclopropylpiperazin-1-yl)-6-cyclopropyl-5-(6-hydroxypyridazin-4-yl)nicotinonitrile]"
11,6.00 to 6.30,"C=CC(=O)N1CC=C(c2cc(C#N)c(N3CCN(C(=O)C4CC4)[C@H](C)C3)nc2C2CC2)CC1 [Compound 630, (R)-5-(1-acryloyl-1,2,3,6-tetrahydropyridin-4-yl)-2-(4-(cyclopropanecarbonyl)-3-methylpiperazin-1-yl)-6-cyclopropylnicotinonitrile]"
12,> 6.30,"C=Cc1cc(-c2cc(C#N)c(N3CCN(C(=O)CO)[C@H](C)C3)nc2C2CC2)ccn1 [Compound 632, (R)-2-cyclopropyl-6-(4-(2-hydroxyacetyl)-3-methylpiperazin-1-yl)-2′-vinyl-3,4′-bipyridine-5-carbonitrile]"
13,> 6.30,"Cn1ncc(-c2cc(C#N)c(N3CCN(C(=O)C4CC4)[C@H](C4CC4)C3)nc2C2CC2)cc1=O [Compound 640, (R)-2-(4-(cyclopropanecarbonyl)-3-cyclopropylpiperazin-1-yl)-6-cyclopropyl-5-(1-methyl-6-oxo-1,6-dihydropyridazin-4-yl)nicotinonitrile]"
14,> 6.30,"N#Cc1cc(-c2cc(C#N)c(N3CCN(C(=O)C4CC4)[C@H](C4CC4)C3)nc2C2CC2)cnn1 [Compound 641, (R)-5-(5-cyano-6-(4-(cyclopropanecarbonyl)-3-cyclopropylpiperazin-1-yl)-2-cyclopropylpyridin-3-yl)pyridazine-3-carbonitrile]"
15,> 6.30,"C=Cc1ccnc(N(c2cc(C=C)ccn2)c2cc(C#N)c(N3CCN(C(=O)CCOC)[C@H](C)C3)nc2C2CC2)c1 [Compound 646, (R)-5-(bis(4-vinylpyridin-2-yl)amino)-6-cyclopropyl-2-(4-(3-methoxypropanoyl)-3-methylpiperazin-1-yl)nicotinonitrile]"
16,6.00 to 6.30,"COCCC(=O)N1CCN(c2nc(C3CC3)c(-c3ccc(C(=O)N(C)OC)cc3)cc2C#N)C[C@H]1C [Compound 656, (R)-4-(5-cyano-2-cyclopropyl-6-(4-(3-methoxypropanoyl)-3-methylpiperazin-1-yl)pyridin-3-yl)-N-methoxy-N-methylbenzamide]"
17,> 6.30,"COCCC(=O)N1CCN(c2nc(C3CC3)c(N(c3ccnc(C#N)c3)c3ccnc(C#N)c3)cc2C#N)C[C@H]1C [Compound 659, (R)-4,4′-(5-cyano-2-cyclopropyl-6-(4-(3-methoxypropanoyl)-3-methylpiperazin-1-yl)pyridin-3-ylazanediyl)dipicolinonitrile]"
